Here are results for 10 molecules from US20120214847A1, “2-[1-PHENYL-5-HYDROXY-4a-SUBSTITUTED-HEXAHYDROCYCLOPENTA[F]INDAZOL-5-YL]ETHYL PHENYL DERIVATIVES AS GLUCOCORTICOID RECEPTOR LIGANDS” (Merck Sharp & Dohme Corp., priority 2009, published 2012).

The target in the assay is T1, human GR (Homo sapiens, UniProt P04150).
T1 construct: naturally expresses the human GR; endogenous in cells
T1 sequence (P04150 1-777): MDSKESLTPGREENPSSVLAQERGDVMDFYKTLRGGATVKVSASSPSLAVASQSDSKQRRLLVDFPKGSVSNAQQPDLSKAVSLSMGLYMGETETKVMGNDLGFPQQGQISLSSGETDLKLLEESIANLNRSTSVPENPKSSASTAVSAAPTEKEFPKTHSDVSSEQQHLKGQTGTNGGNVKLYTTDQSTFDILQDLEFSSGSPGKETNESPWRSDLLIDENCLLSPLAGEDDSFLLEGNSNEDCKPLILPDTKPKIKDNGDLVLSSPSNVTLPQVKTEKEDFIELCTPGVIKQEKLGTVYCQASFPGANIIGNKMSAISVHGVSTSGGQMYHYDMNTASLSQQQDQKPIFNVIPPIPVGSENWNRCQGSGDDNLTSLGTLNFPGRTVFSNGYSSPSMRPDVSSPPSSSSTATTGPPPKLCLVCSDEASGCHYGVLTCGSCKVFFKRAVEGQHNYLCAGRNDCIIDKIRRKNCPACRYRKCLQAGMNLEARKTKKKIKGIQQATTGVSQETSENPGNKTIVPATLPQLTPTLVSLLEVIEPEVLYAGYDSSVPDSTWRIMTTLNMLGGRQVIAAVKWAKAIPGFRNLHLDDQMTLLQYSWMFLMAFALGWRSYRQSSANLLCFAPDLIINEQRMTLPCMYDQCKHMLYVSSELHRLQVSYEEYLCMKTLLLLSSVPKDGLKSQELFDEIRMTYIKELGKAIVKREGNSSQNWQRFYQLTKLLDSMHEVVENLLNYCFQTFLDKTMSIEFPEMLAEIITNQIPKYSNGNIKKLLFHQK
The experiment in a line: Transrepression assay (GITAR), TNFα-β-lactamase reporter in U937 cells. It counts as cell-based. The settings on record: for EC50: U937 cells, IP = inflection point; for Emax: U-937, U937 cells, activity repressed by 100 nM dexamethasone alone set as 100%. The text has this:
Transrepression Assay (GITAR)
This assay assesses the ability of test compounds to control transcription from the TNFα-β-lactamase reporter gene in U937 cells, a human myelomonocytic leukemia cell line that naturally expresses the human GR. The assay measures compound dependent-repression of the TNFa promoter linked to a reporter gene.
The human U937 cells that had been stablely transfected with the TNF-a promoter driving ˜-lactamase are used for this assay. U937 cells contain an endogenous glucocorticoid receptor (GR). Cells are maintained in RPMI 1640 Growth medium (GibcoCat#11875-093) containing 25 mM HEPES, 10% FBS, 2 mM L-Glutamine, 1 mM Sodium pyruvate, 25 μg/ml Gentamicin (Gibed Cat#1571 0-064), 1:1000 2-Mercaptoethanol (Gibco Cat#21985-023) and 0.8 mg/ml G418 (Gibco Cat#10131-027). The density of the cells in the flask needs to be about 1×10^6-3×10^6/ml at the time of harvest. Usually, the cells are split to 1.2˜1.4×10^5/ml (1:10) 3 days prior to the assay. 50,000 cells/well are plated in 96 well black-walled plates the day of assay. Test compounds are added 10 J.lL/well, and cells are incubated at 37° C. for 30˜45 min. For assaying compounds, first dilute 1:10 in DMSO to make 1 mM, then further dilute 1:100 in medium to make 10× stock prior to adding to the cells. Add 50 ng/ml PMA (Sigma, cat#P8139) 10 μL/well to a final concentration 5 ng/ml, and 1 μg/ml LPS (Sigma, cat#L4130) 10 μL/well to a final concentration 100 ng/ml. Incubate cells at 370 C overnight for −18 hr. PMA is stored frozen as […] in DMSO. Dilute 1:10 in DMSO for a working stock of 10 μg/ml and store at −20° C. For assaying, dilute the 10 μg/ml working stock 1:200 in medium to make a 10× solution (50 ng/ml). Store frozen LPS at 1 mg/ml in PBS, dilute 1:1000 in medium to make 10×μg/ml) for the assay. Add 6× loading buffer (CCF2-AM) 20 μL/well, and incubate at room temperature for 70-90 min. […] The activity repressed by 100 nM dexamethasone alone is set as 100% activity.

One may read the EC50 as the midpoint of the concentration-response curve. One may read the Emax as the maximal effect, on the per cent scale that the assay sets. Take `CC[C@]12Cc3cnn(-c4ccc(F)cc4)c3C=C1CC[C@@]2(O)CCc1ncc(F)cc1C(N)=O` [Example 53, 2-{2-[(4aS,5R)-4a-Ethyl-1-(4-fluorophenyl)-5-hydroxy-1,4,4a,5,6,7-hexahydrocyclopenta[f]indazol-5-yl]ethyl}-5-fluoropyridine-3-carboxamide]: it took 0.075 µM to reach a half-maximal effect (EC50) and the Emax worked out at 86%.
In turn, `CC[C@]12Cc3cnn(-c4ccc(F)cc4)c3C=C1CC[C@@]2(O)CC(O)c1cc(C#N)ccn1` (stereo partly drawn) [Example 72, 2-{2-[(4aS,5R)-4a-Ethyl-1-(4-fluorophenyl)-5-hydroxy-1,4,4a,5,6,7-hexahydrocyclopenta[f]indazol-5-yl]-1-hydroxyethyl}pyridine-4-carbonitrile] had an EC50 of 0.228 µM and an Emax of 51%.
Take `CC[C@]12Cc3cnn(-c4ccc(F)cc4)c3C=C1CC[C@@]2(O)CCc1cc(F)ccn1` [Example 18, (4aS,5R)-4a-Ethyl-1-(4-fluorophenyl)-5-[2-(4-fluoropyridin-2-yl)ethyl]-1,4,4a,5,6,7-hexahydrocyclopenta[f]indazol-5-ol]: a half-maximal effect (EC50) was put at 0.074 µM and the Emax was 80%.
`NC(=O)C(O)c1ccccc1CC[C@]1(O)CCC2=Cc3c(cnn3-c3ccc(F)cc3)C[C@@]21C1CC1` (single isomer, unassigned) [Example 3b] displayed an EC50 of 0.068 µM and an Emax of 85%.
The matching figures for `CC[C@]12Cc3cnn(-c4ccc(F)cc4)c3C=C1CC[C@@]2(O)CC1OC(=O)c2ccccc21` (stereo partly drawn) [Example 71, 3-{[(4aS,5R)-4a-Ethyl-1-(4-fluorophenyl)-5-hydroxy-1,4,4a,5,6,7-hexahydrocyclopenta[f]indazol-5-yl]methyl}-2-benzofuran-1(3H)-one]: 0.065 µM and 74%.
As for `CC[C@]12Cc3cnn(-c4ccccc4)c3C=C1CC[C@@]2(O)CC(O)c1cc(C#N)ccn1` (stereo partly drawn) [Example 75, 2-{2-[(4aS,5R)-4a-Ethyl-5-hydroxy-1-phenyl-1,4,4a,5,6,7-hexahydrocyclopenta[f]indazol-5-yl]-1-hydroxyethyl}pyridine-4-carbonitrile], the EC50 stood at 0.235 µM and the Emax was determined as 67%.
The matching figures for `N#Cc1cccnc1CC[C@]1(O)CCC2=Cc3c(cnn3-c3ccc(F)cc3)C[C@@]21C1CC1` [Example 31, 2-{2-[(4aR,5R)-4a-Cyclopropyl-1-(4-fluorophenyl)-5-hydroxy-1,4,4a,5,6,7-hexahydrocyclopenta[f]indazol-5-yl]ethyl}pyridine-3-carbonitrile]: 0.013 µM and 89%.
`O=C(NCCO)c1ccccc1CC[C@]1(O)CCC2=Cc3c(cnn3-c3ccc(F)cc3)C[C@@]21C1CC1` [Example 50, 2-{2-[(4aR,5R)-4a-Cyclopropyl-1-(4-fluorophenyl)-5-hydroxy-1,4,4a,5,6,7-hexahydrocyclopenta[f]indazol-5-yl]ethyl}-N-(2-hydroxyethyl)benzamide]: the EC50 was 0.009 µM and the Emax stood at 88%.
The matching figures for `CC(C)(CO)NC(=O)c1cc(F)cnc1CC[C@]1(O)CCC2=Cc3c(cnn3-c3ccc(F)cc3)C[C@@]21C1CC1` [Example 48, 2-{2-[(4aR,5R)-4a-Cyclopropyl-1-(4-fluorophenyl)-5-hydroxy-1,4,4a,5,6,7-hexahydrocyclopenta[f]indazol-5-yl]ethyl}-5-fluoro-N-(1-hydroxy-2-methylpropan-2-yl)pyridine-3-carboxamide]: 0.009 µM and 87%.
For `CC[C@]12Cc3cnn(-c4ccc(F)cc4)c3C=C1CC[C@@]2(O)CCc1cccc(F)c1CC(N)=O` [Example 60, 2-(2-{2-[(4aS,5R)-4a-Ethyl-1-(4-fluorophenyl)-5-hydroxy-1,4,4a,5,6,7-hexahydrocyclopenta[f]indazol-5-yl]ethyl}-6-fluorophenyl)acetamide] the same measures were 0.024 µM and 84%.
